Results taken from US20100040738A1, “Extension Of Beverage Shelf-Stability By Solute-Ligand Complexes” (PepsiCo., Inc., priority 2008, published 2010).
Values after ≈ are worked out from the molar mass of the structure shown. Where two headings read alike, the source gives them in different places.

How the values were obtained:
[1] = test system: spoilage organisms; experiment: MIC of antimicrobial candidates (Table II); assay type: cell-based
Protocol: “Minimal inhibitory concentration” (MIC) is another term for which no standard time period is included in the definition.
(§1) In each of the examples below, the period of incubation is 16 weeks which relates to the standard shelf life period for beverages distributed at ambient temperature. If a chemical simply retards growth for a period less than 16 weeks, then it will not fulfill the need of the manufacturer. The concentration of the chemical employed to prohibit spoilage is often reported as the Minimum Inhibitory Concentration (MIC). The MIC value of a candidate compound for use as a beverage preservative is the concentration of the candidate which permits the beverage to remain free of spoilage for a period of 16 weeks.

[2] = Solubility limit in model beverage system, non-complex form or cyclodextrin complex; assay type: physicochemical; details: for solubility limit / limit of solubility in beverage: non-complex form; for limit of solubility in beverage: across test beverages
Protocol: The base composition of the model beverage per liter is:
A model high acid beverage system (pH <4.6) of 10% juice content was prepared to test efficacy of methoxycinnamate either in the non-complex form or as the alpha (α) or beta (β) cyclodextrin-included (complex) form. The base composition of the model beverage per liter is:
A model low acid beverage system (pH ≧4.6) with high water activity (>0.97) was prepared to test efficacy of methoxycinnamate either in the non-complex form or as the alpha (α) or beta (β) cyclodextrin-included (complex) form. The base composition of the model beverage per liter is:
A model high acid beverage system (pH <4.6) of 10% juice content was prepared to test efficacy of trans, trans 2,4 decadienal either in the non-complex form or as the alpha (α) or beta (β) cyclodextrin-included (complex) form. The base composition of the model beverage per liter is:
A model low acid beverage system (pH ≧4.6) with high water activity (>0.97) was prepared to test efficacy of trans, trans 2,4 decadienal either in the non-complex form or as the alpha (α) or beta (β) cyclodextrin-included (complex) form. The base composition of the model beverage per liter is: […]

[3] = test system: Saccharomyces cerevisiae, Zygosaccharomyces balii and Zygosaccharomyces bisporus; experiment: Inhibition of growth of 3 spoilage yeast in model beverage, 16 weeks incubation; assay type: cell-based; details: for amount in complex required to inhibit growth of 3 different spoilage yeast: in complex with alpha or beta cyclodextrin
Protocol: as §1
(§2) The base composition of the model beverage per liter is: […]
as §2
A model high acid beverage system (pH <4.6) of 10% juice content was prepared to test efficacy of methoxycinnamate either in the non-complex form or as the alpha (α) or beta (β) cyclodextrin-included (complex) form. The base composition of the model beverage per liter is: […]

[4] = high acid model beverage pH 3.4, 5% grape and 5% apple juice (Example 5)
[5] = low acid model tea beverage pH 5.3 (Examples 4 and 6)
[6] = at limit of solubility, summary of examples
[7] = at solubility limit concentration, low acid model tea beverage pH 5.3 (Examples 4 and 6)
[8] = in complex with α-cyclodextrin, low acid model tea beverage pH 5.3 (Examples 4 and 6)
[9] = in complex with β-cyclodextrin, low acid model tea beverage pH 5.3 (Examples 4 and 6)
[10] = high acid model beverage pH 3.4, 10% grape juice (Example 3)

Q: With `CCCCCCCCCCO` [1-Decanol] as the compound, how does the MIC ([1]; 2688 h, read-out: MIC) read?
A: Its MIC is 24 µg/mL.

Q: Which MIC ([1]; 2688 h, read-out: MIC) does the source give for `CC(=O)OCCC1CCCCC1` [2-Cyclohexylethyl acetate] here?
A: The MIC was 102 µg/mL.

Q: Which MIC [1] does the source give for `O=C(OCc1ccccc1)c1ccc(O)cc1` [Benzyl-4-hydroxbenzoate] here?
A: The MIC was 68 ppm.

Q: Which MIC ([1]; 2688 h, read-out: MIC) does the source give for `O=CC=Cc1ccccc1` [Cinnamaldehyde] here?
A: The MIC was 66 µg/mL.

Q: For `O=C(O)C=Cc1ccccc1` [Cinnamic acid], which MIC ([1]; 2688 h, read-out: MIC) is on record?
A: Its MIC is 300 µg/mL.

Q: With `O=C(O)CCCC1CCCCC1` [Cyclohexanebutyric acid] as the compound, how does the MIC ([1]; 2688 h, read-out: MIC) read?
A: The MIC was 68 µg/mL.

Q: Which MIC ([1]; 2688 h, read-out: MIC) does the source give for `CCCCCCCCCC=O` [Decanal] here?
A: Its MIC is 47 µg/mL.

Q: For `CCCCCCCCC(=O)OC` [Methyl nonaoate], which MIC [1] is on record?
A: The MIC was 90 ppm.

Q: For `CCCCCCCCC(=O)O` [Nonanoic acid], which MIC ([1]; 2688 h, read-out: MIC) is on record?
A: Its MIC is 63 µg/mL.

Q: For `CCCCCC1CCC(=O)O1` (stereo not drawn) [Nonanoic lactone], which MIC [1] is on record?
A: Its MIC is 63 ppm.

Q: Which MIC ([1]; 2688 h, read-out: MIC) does the source give for `CCCOC(=O)c1ccccc1` [Propyl benzoate] here?
A: Its MIC is 66 µg/mL.

Q: For `C/C=C/C=C/C(=O)O` [Sorbic acid], which MIC ([1]; 2688 h, read-out: MIC) is on record?
A: The MIC was 1200 µg/mL.

Q: Which MIC [1] does the source give for `CCCCC/C=C/C=C/C=O` [Trans, trans, 2,4 decadienal] here?
A: The MIC was 8 ppm.

Q: What about the “solubility in the form of a complex with alpha or beta cyclodextrin” value (“solubility in the form of a complex” below) [2, 4] of the same compound?
A: Its value is ≤ 280 µg/mL.

Q: And the “solubility in the form of a complex” value [2, 5]?
A: Its value is ≤ 280 µg/mL.

Q: What about the solubility limit [2, 4] of the same compound?
A: Its solubility limit is 5.4 µg/mL (≈ 35.5 µM).

Q: What about the solubility limit [2, 5] of the same compound?
A: The solubility limit was 5.8 µg/mL (≈ 38.1 µM).

Q: And the “limit of solubility in beverage” value ([2]; summary of examples)?
A: The value was 57 µg/mL.

Q: What about the “solubility in the form of a complex” value ([2]; summary of examples) of the same compound?
A: The value was ≤ 280 µg/mL.

Q: What about the “effective as a stand alone chemical preservative” value (“effective” below) [3, 6] of the same compound?
A: Its value is “not effective”.

Q: What about the “effective” value ([3]; at solubility limit concentration, high acid model beverage pH 3.4, 5% grape and 5% apple juice (Example 5)) of the same compound?
A: The value was “not effective”.

Q: What about the “effective” value [3, 7] of the same compound?
A: The value was “did not prove effective”.

Q: What about the “amount in complex required to inhibit growth of 3 different spoilage yeast” value ([3]; summary of examples) of the same compound?
A: Its value is 57-124 ppm.

Q: What about the “amount required to inhibit growth of 3 different spoilage yeast” value ([3]; in complex with α-cyclodextrin, high acid model beverage pH 3.4, 5% grape and 5% apple juice (Example 5)) of the same compound?
A: The value was 60 mg/L.

Q: And the “amount required to inhibit growth of 3 different spoilage yeast” value [3, 8]?
A: The value was 57 mg/L.

Q: And the “amount required to inhibit growth of 3 different spoilage yeast” value ([3]; in complex with β-cyclodextrin, high acid model beverage pH 3.4, 5% grape and 5% apple juice (Example 5))?
A: The value was 125 mg/L.

Q: And the “amount required to inhibit growth of 3 different spoilage yeast” value [3, 9]?
A: The value was 123 mg/L.

Q: With `CCCCCCCC1CCC(=O)O1` (stereo not drawn) [Undecalactone] as the compound, how does the MIC [1] read?
A: The MIC was 28 ppm.

Q: With `CCCCCCCCCCC=O` [Undecanal] as the compound, how does the MIC ([1]; 2688 h, read-out: MIC) read?
A: The MIC was 34 µg/mL.

Q: With `C/C(C=O)=C\c1ccccc1` [methyl trans cinnamylaldehyde] as the compound, how does the MIC [1] read?
A: The MIC was 58.4 ppm.

Q: With `COc1ccccc1C=CC=O` [o-methoxycinnamylaldehyde] as the compound, how does the MIC [1] read?
A: Its MIC is 58 ppm.

Q: Which MIC ([1]; 2688 h, read-out: MIC) does the source give for `C=C(C)C1CC=C(C=O)CC1` (stereo not drawn) [perillaldehyde] here?
A: The MIC was 500 µg/mL.

Q: Which “amount in complex required to inhibit growth of 3 different spoilage yeast” value ([3]; summary of examples) does the source give for `CCCOC(=O)c1ccc(O)cc1` [propyl paraben, Propyl paraban] here?
A: Its value is 510-600 ppm.

Q: What about the “amount required to inhibit growth of 3 different spoilage yeast” value ([3]; in complex with α-cyclodextrin, high acid model beverage pH 3.4, 10% apple juice (Example 1)) of the same compound?
A: The value was 510 mg/L.

Q: What about the “amount required to inhibit growth of 3 different spoilage yeast” value ([3]; in complex with α-cyclodextrin, low acid model beverage pH 5.8 (Example 2)) of the same compound?
A: Its value is 510 mg/L.

Q: And the “amount required to inhibit growth of 3 different spoilage yeast” value ([3]; in complex with β-cyclodextrin, high acid model beverage pH 3.4, 10% apple juice (Example 1))?
A: The value was 600 mg/L.

Q: And the “amount required to inhibit growth of 3 different spoilage yeast” value ([3]; in complex with β-cyclodextrin, low acid model beverage pH 5.8 (Example 2))?
A: The value was 650 mg/L.

Q: With `Cc1ccc(C(C)C)c(O)c1` [thymol] as the compound, how does the MIC ([1]; 2688 h, read-out: MIC) read?
A: Its MIC is 250 µg/mL.

Q: Which “solubility in the form of a complex” value [2, 10] does the source give for methoxycinnamate here?
A: Its value is ≤ 3690 µg/mL.

Q: What about the “solubility in the form of a complex” value [2, 5] of the same compound?
A: Its value is ≤ 3411 µg/mL.

Q: What about the solubility limit [2, 10] of the same compound?
A: Its solubility limit is 498 µg/mL.

Q: And the solubility limit [2, 5]?
A: The solubility limit was 600 µg/mL.

Q: What about the “limit of solubility in beverage” value ([2]; summary of examples) of the same compound?
A: Its value is 498 to 600 µg/mL.

Q: And the “solubility in the form of a complex” value ([2]; summary of examples)?
A: Its value is ≤ 3600 µg/mL.

Q: And the “effective” value [3, 6]?
A: The value was “not effective”.

Q: What about the “effective” value ([3]; at solubility limit concentration, high acid model beverage pH 3.4, 10% grape juice (Example 3)) of the same compound?
A: Its value is “not effective”.

Q: What about the “effective” value [3, 7] of the same compound?
A: Its value is “did not prove effective”.

Q: And the “amount in complex required to inhibit growth of 3 different spoilage yeast” value ([3]; summary of examples)?
A: The value was 400-807 ppm.

Q: What about the “amount required to inhibit growth of 3 different spoilage yeast” value ([3]; in complex with α-cyclodextrin, high acid model beverage pH 3.4, 10% grape juice (Example 3)) of the same compound?
A: Its value is 800 mg/L.

Q: And the “amount required to inhibit growth of 3 different spoilage yeast” value [3, 8]?
A: The value was 800 mg/L.

Q: And the “amount required to inhibit growth of 3 different spoilage yeast” value ([3]; in complex with β-cyclodextrin, high acid model beverage pH 3.4, 10% grape juice (Example 3))?
A: Its value is 420 mg/L.

Q: What about the “amount required to inhibit growth of 3 different spoilage yeast” value [3, 9] of the same compound?
A: Its value is 420 mg/L.

Q: And the MIC ([3]; in complex with β-cyclodextrin, summary of examples)?
A: The MIC was 400 µg/mL.

Q: And the MIC ([3]; non-complex form, summary of examples)?
A: The MIC was > 600 µg/mL.
